Laboratory results taken from ChEMBL document CHEMBL1201862, “PubChem BioAssay data set” (2004).
Activity calls are given as the source filed them.

Experiments:
[1] = target: Botulinum neurotoxin type F (Clostridium botulinum, UniProt P30996); experiment: High-throughput multiplex microsphere dose response for inhibitors of toxin protease, specifically Botulinum neurotoxin light chain F protease, compounds from Cherry Pick 02.; assay type: functional; details: read-out: EC50_MICROM
[2] = target: T1, Beta-lactamase (Pseudomonas aeruginosa, UniProt Q79MP6); experiment: […] counterscreen for selective VIM-2 inhibitors: dose response biochemical high throughput screening assay to identify inhibitors of IMP-1 metallo-beta-lactamase.
T1 sequence (Q79MP6 whole entry): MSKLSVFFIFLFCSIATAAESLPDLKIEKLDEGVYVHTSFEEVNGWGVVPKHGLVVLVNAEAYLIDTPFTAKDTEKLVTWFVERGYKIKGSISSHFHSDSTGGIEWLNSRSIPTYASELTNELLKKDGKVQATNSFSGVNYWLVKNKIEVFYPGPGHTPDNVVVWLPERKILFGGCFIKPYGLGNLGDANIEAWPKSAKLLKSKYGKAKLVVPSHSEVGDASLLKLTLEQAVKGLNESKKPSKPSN

[3] = target: Beta-lactamase (Salmonella choleraesuis (strain SC-B67), UniProt Q5J463); experiment: Epi-absorbance-based counterscreen for selective VIM-2 inhibitors: dose response biochemical high throughput screening assay to identify inhibitors of TEM-1 serine-beta-lactamase.
Beta-lactamase (Salmonella choleraesuis (strain SC-B67), UniProt Q5J463), sequence (Q5J463 whole entry): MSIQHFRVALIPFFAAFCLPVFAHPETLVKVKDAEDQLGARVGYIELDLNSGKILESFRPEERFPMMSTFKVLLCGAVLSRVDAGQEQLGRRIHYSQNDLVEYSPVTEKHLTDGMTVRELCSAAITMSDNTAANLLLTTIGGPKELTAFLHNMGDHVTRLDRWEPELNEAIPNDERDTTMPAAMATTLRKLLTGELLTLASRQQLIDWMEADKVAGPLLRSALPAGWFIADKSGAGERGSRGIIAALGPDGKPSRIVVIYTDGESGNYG

[4] = target: T2, Beta Lactamase (Pseudomonas aeruginosa, UniProt Q932Y6); experiment: concentration-dependent VIM-2 enzyme inhibition – biochemical, epi-absorbance readout, selective inhibitors, dose response (AID 1919)
T2 sequence (Q932Y6 whole entry): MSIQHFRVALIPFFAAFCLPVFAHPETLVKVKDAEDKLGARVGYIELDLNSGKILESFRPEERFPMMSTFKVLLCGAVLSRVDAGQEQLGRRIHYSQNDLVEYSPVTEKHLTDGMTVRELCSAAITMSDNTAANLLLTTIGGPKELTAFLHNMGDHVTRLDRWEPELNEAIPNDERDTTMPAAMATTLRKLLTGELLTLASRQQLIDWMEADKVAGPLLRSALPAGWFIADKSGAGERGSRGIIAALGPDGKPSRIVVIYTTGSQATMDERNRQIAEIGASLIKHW

[5] = target: T1, Beta-lactamase; experiment: inhibition of IMP-1 beta-lactamase activity – biochemical, epi-absorbance, selectivity assay for VIM-2 inhibitor project, dose response (AID 1920)
[6] = target: T2, Beta Lactamase; experiment: VIM-2 CCF2 hydrolysis inhibition, assay artifact filter – biochemical, FRET readout, CCF2 substrate, artefact control for selective VIM-2 inhibitor project, dose response (AID 1926)
[7] = target: Protein S100-A4 (Homo sapiens, UniProt P26447); experiment: human S100A4 peptide interaction inhibition curves – biochemical, fluorescence polarization, cherry-picked hits, dose response (AID 687001); assay type: functional
Protein S100-A4, sequence (P26447 whole entry): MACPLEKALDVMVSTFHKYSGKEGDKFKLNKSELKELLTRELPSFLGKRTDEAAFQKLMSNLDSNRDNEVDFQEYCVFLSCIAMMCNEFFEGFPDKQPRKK

[8] = target: T3, Sentrin-specific protease 8 (Homo sapiens, UniProt Q96LD8); assay type: functional
T3 sequence (Q96LD8 whole entry): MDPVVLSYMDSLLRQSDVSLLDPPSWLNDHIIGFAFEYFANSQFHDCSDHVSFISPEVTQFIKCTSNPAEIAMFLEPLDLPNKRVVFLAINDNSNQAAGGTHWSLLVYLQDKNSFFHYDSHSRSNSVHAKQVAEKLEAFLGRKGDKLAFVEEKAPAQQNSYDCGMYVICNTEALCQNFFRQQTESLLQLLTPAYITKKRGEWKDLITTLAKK

[9] = target: T4, Caspase-3 (Homo sapiens, UniProt P42574); experiment: Dose-response confirmation of uHTS inhibitor hits of Sentrin-Specific Protease 8 in a Caspase-3 Fluorescence assay.; assay type: functional
T4 sequence (P42574 whole entry): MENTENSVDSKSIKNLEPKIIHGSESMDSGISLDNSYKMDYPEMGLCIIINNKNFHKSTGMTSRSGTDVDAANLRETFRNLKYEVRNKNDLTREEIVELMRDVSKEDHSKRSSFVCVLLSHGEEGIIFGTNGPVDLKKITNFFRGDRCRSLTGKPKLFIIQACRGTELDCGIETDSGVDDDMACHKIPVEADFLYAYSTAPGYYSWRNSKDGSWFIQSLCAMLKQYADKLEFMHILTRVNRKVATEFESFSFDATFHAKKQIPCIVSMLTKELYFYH

[10] = test system: Vero; experiment: viability of Vero cells under compound – cytotoxicity control for flavivirus capping enzyme inhibitors (AID 588742); assay type: functional; details: Chlorocebus sabaeus
[11] = target: T3, Sentrin-specific protease 8; assay type: functional; remark: listed apart in the source
[12] = target: T5, Replicative DNA helicase DnaB (Mycobacterium tuberculosis, UniProt P9WMR3); experiment: DnaB intein splicing inhibitors, dose response, biochemical, cell-free fluorescence (AID 449749); assay type: functional
T5 sequence (P9WMR3 whole entry): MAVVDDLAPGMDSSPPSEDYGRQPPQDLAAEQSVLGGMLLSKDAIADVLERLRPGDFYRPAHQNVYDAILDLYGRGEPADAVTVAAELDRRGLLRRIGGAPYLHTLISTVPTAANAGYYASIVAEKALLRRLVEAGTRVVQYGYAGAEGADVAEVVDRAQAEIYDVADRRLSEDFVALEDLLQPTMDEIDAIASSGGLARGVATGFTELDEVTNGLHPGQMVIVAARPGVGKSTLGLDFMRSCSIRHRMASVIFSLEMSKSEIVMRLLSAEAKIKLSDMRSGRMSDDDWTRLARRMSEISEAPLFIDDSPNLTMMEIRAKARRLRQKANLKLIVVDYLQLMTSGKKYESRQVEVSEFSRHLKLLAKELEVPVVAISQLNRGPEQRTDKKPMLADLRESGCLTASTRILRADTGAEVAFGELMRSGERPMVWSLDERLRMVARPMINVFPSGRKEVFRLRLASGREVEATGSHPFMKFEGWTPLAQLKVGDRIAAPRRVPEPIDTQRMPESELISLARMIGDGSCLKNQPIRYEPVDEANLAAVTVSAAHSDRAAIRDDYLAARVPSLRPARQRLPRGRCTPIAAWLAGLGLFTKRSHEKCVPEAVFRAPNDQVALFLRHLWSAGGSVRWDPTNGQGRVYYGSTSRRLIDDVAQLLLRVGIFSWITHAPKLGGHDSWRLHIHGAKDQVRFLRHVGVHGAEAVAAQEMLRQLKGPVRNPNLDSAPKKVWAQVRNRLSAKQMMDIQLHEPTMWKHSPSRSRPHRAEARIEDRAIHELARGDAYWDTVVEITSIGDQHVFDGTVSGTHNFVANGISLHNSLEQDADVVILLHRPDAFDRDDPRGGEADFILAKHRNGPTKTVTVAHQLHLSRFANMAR

[13] = target: T6, Protein RecA (Mycobacterium tuberculosis, UniProt P9WHJ3); experiment: Fluorescence Cell-Free Homogeneous Dose Retest to Identify Inhibitors of RecA-Intein Splicing Activity. [Related pubchem assays (depositor defined):AID2097, AID2223, AID489010, AID492950]; assay type: functional
T6 sequence (P9WHJ3 whole entry): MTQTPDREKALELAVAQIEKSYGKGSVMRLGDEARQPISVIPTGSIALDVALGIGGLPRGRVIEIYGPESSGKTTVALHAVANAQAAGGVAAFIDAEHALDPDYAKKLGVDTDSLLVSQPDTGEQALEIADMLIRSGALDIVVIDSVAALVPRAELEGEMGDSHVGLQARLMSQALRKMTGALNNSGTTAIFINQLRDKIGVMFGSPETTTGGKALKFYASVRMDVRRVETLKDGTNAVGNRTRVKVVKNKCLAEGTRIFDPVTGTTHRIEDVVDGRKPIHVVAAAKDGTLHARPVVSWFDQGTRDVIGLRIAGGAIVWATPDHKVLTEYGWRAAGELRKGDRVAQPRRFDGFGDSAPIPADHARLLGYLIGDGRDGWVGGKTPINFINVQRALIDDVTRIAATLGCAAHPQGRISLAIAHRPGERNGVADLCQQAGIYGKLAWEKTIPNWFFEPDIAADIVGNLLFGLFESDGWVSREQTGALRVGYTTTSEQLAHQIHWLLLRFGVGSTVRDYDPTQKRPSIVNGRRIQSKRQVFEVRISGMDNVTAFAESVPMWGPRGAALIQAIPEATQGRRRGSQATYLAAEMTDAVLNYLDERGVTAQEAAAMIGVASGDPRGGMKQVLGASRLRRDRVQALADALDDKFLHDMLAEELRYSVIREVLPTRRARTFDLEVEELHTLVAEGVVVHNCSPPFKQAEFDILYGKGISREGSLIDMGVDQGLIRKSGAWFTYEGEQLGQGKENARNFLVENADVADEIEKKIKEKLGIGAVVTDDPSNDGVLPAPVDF

[14] = Late stage assay provider results from the probe development effort to identify inhibitors of the Plasmodium falciparum M17 Leucine Aminopeptidase (M17LAP): radiolabel-based cell-based dose response assay to identify compounds that inhibit P. falciparum growth in RBCs Set 2.; assay type: functional
[15] = anti-trypanosomal activity in BESM host cells – imaging, CA-I/72 strain, bovine embryo skeletal muscle, dry powder, dose response (AID 651885); assay type: functional, cell-based

Botulinum neurotoxin type F, sequence (P30996 1-436 limits assumed): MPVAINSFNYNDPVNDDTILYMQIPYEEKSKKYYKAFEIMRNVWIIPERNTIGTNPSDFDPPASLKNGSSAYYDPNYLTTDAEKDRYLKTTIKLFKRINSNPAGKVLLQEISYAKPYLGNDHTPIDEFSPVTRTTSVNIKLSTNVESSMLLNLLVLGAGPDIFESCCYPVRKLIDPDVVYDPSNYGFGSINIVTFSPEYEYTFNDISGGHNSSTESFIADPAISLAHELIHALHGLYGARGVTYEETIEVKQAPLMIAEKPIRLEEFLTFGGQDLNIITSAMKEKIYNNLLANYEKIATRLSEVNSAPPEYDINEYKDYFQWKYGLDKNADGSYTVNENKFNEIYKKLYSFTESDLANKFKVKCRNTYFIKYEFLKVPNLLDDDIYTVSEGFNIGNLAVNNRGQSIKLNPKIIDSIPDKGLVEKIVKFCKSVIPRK

Which EC50 [1] does the source give for `COc1cccc(C(=O)OCC(=O)c2c[nH]c3ccccc23)c1O` here?
The EC50 was > 20 µM (inactive).

For `O=C(C1=C(O)C(=O)N(Cc2cccnc2)C1c1ccccn1)c1cccs1` (stereo not given), which IC50 [2] is on record?
Its IC50 is > 59.6 µM (inactive).

What about the IC50 [3] of the same compound?
Its IC50 is > 59.6 µM (inactive).

And the IC50 [4]?
Its IC50 is 13.2 µM (inactive).

What about the IC50 [5] of the same compound?
Its IC50 is > 59.6 µM (inactive).

What about the IC50 [6] of the same compound?
Its IC50 is 4.83 µM (active).

With `CN(C)c1ccc(C=Cc2nccc3ccccc23)cc1` as the compound, how does the AC50 [7] read?
The AC50 was 0.774 µM (active).

Which results are given for `COc1ccc(/C=N/NC(=O)c2nn(-c3ccc(Cl)cc3)c(=O)c3c(N)scc23)cc1`?
IC50 [8]: 2.03 µM (active); IC50 [9]: 11.9 µM (active); CC50 [10]: 22 µM (active); IC50 [11]: 0.967 µM (active); AC50 [12]: > 380 µM (inactive); EC50 [13]: 4.62 µM (active)

With `CCCCOc1ccc(CN(O)C(=O)c2ccccc2)cc1` as the compound, how does the IC50 [14] read?
Its IC50 is 13.6 µM (inactive).

Which IC50 [15] does the source give for `CNC[C@H]1Oc2c(NC(=O)c3ccccc3)cccc2C(=O)N(C(C)C)C[C@@H]1C` here?
The IC50 was > 20 µM (inactive).
